Laboratory results published in patent US11446285B2, “Methods for treating systemic lupus erythematosus” (University of Southern California, priority 2017, dated 2022).
“Also recorded” adds a separate entry of the source.

Experiments:
Type in all cases: in vivo
MRL-lpr mice [1] = test: Protein urine scores in MRL-lpr mouse model of SLE; conditions: once daily s.c. for 6 weeks from 8 weeks of age, A(1-7) 0.5 mg/kg, Compound 7 2 mg/kg, compared to saline treated MRL-lpr mice
Description: Protein urine scores. At necropsy a final measurement or proteinuria was done using Urinalysis Reagent Strips (Mountainside Medical Equipment; Marcy, N.Y.). Protein scores signify the level of protein measured in the urine of each mouse and are scored as; 1-15 mg/dl protein, 2-30 mg/dl protein, 3-100 mg/dl protein and 4-300 mg/dl protein.
(§1) Our study uses the MRL/MpJ-Fas^lpr/J (MRL-lpr) as a mouse model of SLE and MRL/MpJ mice as controls (control mice do develop SLE but at a much later stage in life). These mice were broken into 4 groups that received once daily subcutaneous injections of treatment starting at 8 weeks of age for 6 weeks: a MRL/MpJ group (n=5) dosed daily with saline, an MRL-lpr group (n=8) dosed with saline, an MRL/MpJ group (n=8) dosed with 0.5 mg/kg of A(1-7), and an MRL/MpJ group (n=8) dosed with 2 mg/kg of Compound 7 (in an aqueous Tween 20 formulation). Throughout the study, the mice were monitored for proteinuria and face lesions. At necropsy, the kidneys and peripheral blood were harvested. The kidneys sections were stained with hematoxylin & eosin (H&E) for evaluation of glomerular health. Blood samples were processed and the plasma was stored at −20° C. for measurement of anti-dsDNA antibodies.

MRL-lpr mice [2] = test: Glomerulonephritis scores (H&E kidney sections) in MRL-lpr mouse model of SLE; conditions: once daily s.c. for 6 weeks, A(1-7) 0.5 mg/kg, Compound 7 2 mg/kg, compared to saline treated MRL-lpr mice
Description: Glomerulonephritis scores. Twenty glomeruli from kidney sections stained with H&E were scored for each mouse and a mean score was calculated. The glomerulonephritis score was based on a previously published score of 0-4 based on histopathological changes^6. The scores were defined as: 0, kidney without glomerular lesions; 1, minimal thickening of the mesangium; 2, noticeable increase in both mesangial and glomerular capillary cellularity; 3, preceding conditions, along with superimposed inflammatory exudates and capsular adhesions; 4, obliteration of the glomerular architecture included >70% of glomeruli.
as §1, with “Blood samples were processed and the plasma was stored at −20° C. for measurement of anti-dsDNA antibodies.” left out

MRL-lpr mice [3] = test: Face rash scores in MRL-lpr mouse model of SLE; conditions: scored 19, 25, 30, 37 and 40 days after start of treatment, A(1-7) 0.5 mg/kg, Compound 7 2 mg/kg s.c. daily, compared to saline treated MRL-lpr mice
Description: Face rash scores. Mice were monitored daily for skin lesions. Scores of lesions of the face were taken 19, 25, 30, 37 and 40 days after the start of treatment; pictures were taken at different time points throughout the study. Face rash scores were based on location and extent of inflammation and hair loss as follows: 0, no noticeable irritation; 1, little redness, no hair loss or inflammation; 2, minimal rash, little hair loss or inflammation; 3, moderate rash, increased hair loss, light inflammation; 4, pronounced rash, near total hair loss and obvious inflammation; 5, rash is spreading up to the top of the face; 6, obvious wound above nose.
as §1

MRL-lpr mice [4] = test: Lymph node weights (inguinal and axillary) in MRL-lpr mouse model of SLE; conditions: 6 weeks of treatment, A(1-7) 0.5 mg/kg, Compound 7 2 mg/kg s.c. daily, compared to saline treated MRL-lpr mice
Description: Lymph node weights. At necropsy, inguinal and axillary lymph nodes were dissected and trimmed of any surrounding fatty tissues. They were then weighed using an Adventurer precision balance (Ohaus Corporation, Parsippany, N.J.).
as §1

MRL-lpr mice [5] = test: Anti-dsDNA IgG titers in plasma (ELISA) in MRL-lpr mouse model of SLE; conditions: plasma at necropsy after 6 weeks of treatment, A(1-7) 0.5 mg/kg, Compound 7 2 mg/kg s.c. daily, compared to saline treated MRL-lpr mice
Description: Anti-dsDNA IgG titers. Peripheral blood was collected at necropsy by cardiac puncture with a 1 mL syringe fitted with a 22G needle, transferred into 2 ml K3E K3EDTA VACUETTE® tubes, and stored on ice. The tubes were then spun at 1,500 RPM for 15 min at 4° C. The plasma (top layer) was collected and stored at −20° C. The plasma was then diluted at 1:100 and used in a Mouse Anti-DNA IgG Antibody ELISA Kits (Chondrex Inc, Redmond, Wash.). The average concentration of duplicate samples was calculated against a standard curve and averaged for each mouse.
as §1, with “Blood samples were processed and the plasma was stored at −20° C. for measurement of anti-dsDNA antibodies.” left out

Molecule	protein urine score (proteinuria) at final measurement (MRL-lpr mice [1])	glomerulonephritis score (glomerular pathologies) (MRL-lpr mice [2])	face rash score (inflammation and hair loss) (MRL-lpr mice [3])	face rash score (inflammation and hair loss) (MRL-lpr mice [3]; listed as compound 7)	inguinal and axillary lymph node weight (size) at necropsy (MRL-lpr mice [4])	concentration of circulating anti-dsDNA IgG antibodies in plasma (MRL-lpr mice [5])
CCCCOC(=O)NS(=O)(=O)c1ccc(OC(F)(F)F)cc1-c1ccc(Cn2ccnc2)cn1 [Compound 7]	significantly lower protein scores	significantly reduced the glomerular pathologies	significantly lower only at day 19 and 37	significantly less overall pathologies	reduced the size of both lymph nodes; also recorded: reduced the size but not significantly	significantly lower levels of circulating IgG antibodies against dsDNA; also recorded: significantly lower concentrations
Asp-Arg-Val-Tyr-Ile-His-Pro (DRVYIHP) [A(1-7), endogenous Mas receptor ligand angiotensin 1-7]	significantly lower protein scores	significantly reduced the glomerular pathologies	significantly less overall pathologies; also recorded: significantly lower score than the saline treated MRL-lrp mice throughout the study	–	reduced the size of both lymph nodes; also recorded: significantly smaller	significantly lower levels of circulating IgG antibodies against dsDNA; also recorded: significantly lower concentrations
